Series [1] deals with male C57BL/6J (B6) mice, aged 18 months. Description: Novel Object Recognition test after exogenous adropin^34-76 treatment. The format is in vivo, mouse. On the procedure:
For the novel object recognition task, mice are habituated to an empty apparatus, a 58×66×11-cm white plastic box, for 5 min a day for 3 consecutive days prior to entry of objects. On the first day of training, mice are placed in the testing apparatus with two identical objects (A and B). 24h later the animal is reintroduced to the arena but this time one of the original objects is removed and a new object (C). Total time spent exploring each of the two objects is recorded. Anxiety will be assessed using open field and elevated plus maze tests. The experimental apparatus consists of a central platform, two open arms and two equal-sized closed arms opposite to each other. The test consisted of placing a mouse in the central platform facing an enclosed arm and allowing it to freely explore the maze for 5 min. The number of entries into the open and closed arms and the time spent in open arms was measure by an observer blind to treatment
(§1) To examine the effects of […] adropin on a subject's cognitive ability, 34 male C57BL/6J (B6) mice, aged 18 months, were treated with exogenous adropin^34-76. Mice were purchased from The Jackson Laboratory (Bar Harbor, ME). After acclimation for 1 month, mice were separated into two weight matched groups of 15 mice: Group 1 adropin^34-76 treatment group and Group 2 saline vehicle control.
(§2) The mice were administered a single intraperitoneal injection (volume 100 μl) each morning (0900h) for 4 weeks. Group 1 was administered adropin^34-76 at a dose of 90 nmol/kg/day. Group 2 was administered saline. The peptide was purchased from Neoscientific Inc. Behavioral testing began after 2 weeks of injections. Injections continued though testing until 4 weeks.
A non-amnesic subject will spend more time exploring the novel object than the familiar one. When adropin treated and vehicle treated mice were subjected to the Novel Object Recognition test, adropin treated mice spent more time exploring the novel object (FIG. 11, Table 1)

Series [2] has the same test system. Description: Aversive T-maze acquisition after exogenous adropin^34-76 treatment. The format is in vivo, mouse. On the procedure: (§3) Memory retention and acquisition were assessed using an aversive T-maze and novel objective recognition, as previously described (Farr et al., (2016) J Alzheimers Dis.; 54(4):1339-1348). Briefly, the T-maze consists of a black plastic alley with a start box at one end and two goal boxes at the other. An electrifiable floor of stainless steel rods run throughout the maze to deliver a foot-shock using a scrambled grid floor shocker (Model E13-08, Coulbourn Instruments, Whitehall, PA). Mice are not permitted to explore the maze prior to training. A block of training trials begins when mice are placed in the start box. The guillotine door is raised and a cue buzzer sounded simultaneously (doorbell type, at 55 dB); 5s later a mild aversive foot-shock is applied with an intensity of 0.35 mA. The arm of the maze entered on the first trial is designated “incorrect” and the mild foot-shock continued until the mouse enters the other goal box, which in all subsequent trials is designated “correct” for each mouse. Mice are trained until they made one active avoidance, with an inter-trial interval of 30-35s. The number of trials to make one active avoidance is the measure of acquisition. Retention is tested 7d later, with training continued until the criterion of making five active avoidances in six consecutive trials is achieved. The number of trials needed to reach this criterion is the measure of retention(Butler et al., (2012) The Journal of clinical endocrinology and metabolism.; 97(10):3783-3791; Wong et al., (2014) The Journal of biological chemistry.; 289(37):25976-25986).
as §1, §2
Mice prepared with adropin or placebo in Example 3 were subjected to the Acquisition T-maze test.

Series [3] has the same test system. Description: Aversive T-maze retention after exogenous adropin^34-76 treatment. Also on record: key to T-maze Retention, Difference between means (Adropin vs. Vehicle): difference in trials to criterion, adropin minus vehicle; key to T-maze Retention: number of trials to reach criterion (5 avoidances in 6 trials). The format is in vivo, mouse. On the procedure: as §3, §1, §2
(FIG. 12, Table 3) Mice were retested in the maze after 7 days and Adropin treated mice retained learned memories and complete the maze in lets time.

Series [4] in a line: Body weight and deaths during 4-week intraperitoneal treatment. In kind it is in vivo. Particulars: group 1, 90 nmol/kg/day intraperitoneal. On the procedure:
as §1, §2

For series [5], the system named is mice. Description: Metabolic effects of administered adropin^34-76 in mice. The format is in vivo, mouse. The source says:
The inventors have engineered transgenic mice that over express adropin (“AdrTG”) in the nervous system and peripheral tissues. […] In addition, reduced JNK phosphorylation and expression of cytokines indicates reduced neuroinflammatory processes. Inflammation is also increasingly considered an important predisposing risk factor for age-related neurodegeneration (Irwin & Vitiello (2019) Lancet Neurol. 18(3):296-306; Madhavan et a., Nat Rev Cardiol. 15(12):744-756). […] In addition, the inventors have also shown that adropin levels may be increased systemically by […] administration. […] (Kumar et al. 2008; Gao et al. 2014, 2015)
Using mice, the Inventors have shown that administration of adropin^34-76, in doses as low as 90 nmol/kg/day, delivered as two 45 nmol/kg injections, can be effective in producing changes in metabolism. Dose as high as 900 nmol/kg/d are well tolerated in mice. While the doses required for a desired clinical effect in humans is expected to vary between patients, the 90 nmol/kg dose administered by subcutaneous, intramuscular, or intravenous injection, either once or twice a day, may represent a preferred treatment protocol. […] The optimum dose and frequency for a particular subject may be determined by the patient's treating physician, based on the patient's cognitive response. […]

In series [6] the test system is mice. The series can be described thus: Tolerability of adropin^34-76 doses in mice. In kind it is in vivo, mouse. From the text:
Using mice, the Inventors have shown that administration of adropin^34-76, in doses as low as 90 nmol/kg/day, delivered as two 45 nmol/kg injections, can be effective in producing changes in metabolism. Dose as high as 900 nmol/kg/d are well tolerated in mice. While the doses required for a desired clinical effect in humans is expected to vary between patients, the 90 nmol/kg dose administered by subcutaneous, intramuscular, or intravenous injection, either once or twice a day, may represent a preferred treatment protocol. It is anticipated that the treatments would be administered daily, although long-acting formulations involving weekly injections are envisaged. The optimum dose and frequency for a particular subject may be determined by the patient's treating physician, based on the patient's cognitive response. It is anticipated that adropin therapy may or may not improve a subject's cognitive function relative to current baseline, however adropin therapy may result in significant delays in the advancement of the disease. Improvement may manifest as a significant delay or a reduced rate of subsequent cognitive decline.

Series [7] concerns mice. The note with it: subjects with diet-induced obesity; Kumar et al. 2008; Gao et al. 2014, 2015; cited from earlier work.

Values joined by “and” are separate entries in the source; they are usually repeats but may differ in a detail not shown here. Equal values may be shown once.

As to “Adropin^34-76 (CHSRSADVDSLSESSPNSSPGPCPEKAPPPQKPSHEGSYLLQP; listed as Homo sapiens)”, in series [1] (95% confidence interval 2.733 to 27.24), the “Novel Object Recognition % Novel Object, Difference between means (Adropin vs. Vehicle)” value is 14.99 ± 5.982%. Further, the “Novel Object Recognition test 24 Hour delay % Novel Object” value in series [1] (individual mice, 90 nmol/kg/day intraperitoneal, 24 hour delay) is 55.56% and 77.50% and 66.67% and 79.10% and 51.06% and 100.00% and 51.61% and 46.43% and 42.86% and 53.06% and 37.50% and 40.74% and 64.58% and 62.50% and 58.82%. The “Novel Object Recognition % Novel Object, Mean ± SEM” value in series [1] (n = 15, 90 nmol/kg/day intraperitoneal, P 0.0183 vs. Vehicle) was 58.88 ± 4.106, n = 15%. Further, the “cognitive performance in Novel Object Recognition test (in words)” value in series [1] (vs vehicle treated mice) is listed as “improved cognitive performance”. For the same substance, the “T-maze acquisition, Difference between means (Adropin vs. Vehicle)” value in series [2] (95% confidence interval −4.736 to −2.150) is −3.443 ± 0.6301. For the same substance, in series [2] (individual mice, number of trials to make one active avoidance, 90 nmol/kg/day intraperitoneal), the T-maze acquisition is 7. (5×) and 8. (4×) and 9. (2×) and 6. (3×). Also, the “T-maze acquisition, Mean ± SEM” value in series [2] (n = 14, P <0.0001 vs. Vehicle) is listed as 7.357 ± 0.2695,. Also, in series [2] (vs placebo treated mice), the “performance in Acquisition T-maze test (in words)” value was “improved performance”. Moreover, in series [3] (95% confidence interval −3.121 to −1.565), the “T-maze Retention, Difference between means (Adropin vs. Vehicle)” value was −2.343 ± 0.3792. The “T-maze Retention” value in series [3] (individual mice, retested after 7 days, trials to five active avoidances in six consecutive trials, 90 nmol/kg/day intraperitoneal) is 7. (7×) and 8. and 6. (5×) and 9. For the same substance, the “T-maze Retention, Mean ± SEM” value in series [3] (n = 14, P <0.0001 vs. Vehicle) was 6.857 ± 0.2310,. Besides, in series [3] (retested after 7 days), the “performance in T-maze retention (in words)” value is given as “superior performance”. Further, the deaths during treatment result in series [4] is reported as “One mouse in group 1 died”. Further, the “dose known to affect metabolic control” value in series [5] (male B6 mice, injection) is “about 450 nmol/kg”. For the same substance, the “dose effective in producing changes in metabolism” value in series [5] (mice, delivered as two 45 nmol/kg injections) was not below 90 nmol/kg/day. The substance also had a well tolerated dose in series [6] not above 900 nmol/kg/day. Further, the “metabolic changes after intraperitoneal injection (in words)” value in series [7] is “metabolic changes suggesting improvements in glucose control and reduced risk for type 2 diabetes”.

The values above are taken from patent publication US11969460B2, “Methods and compositions for treating decreased cognitive ability” (Saint Louis University, priority 2018, dated 2024).
